Test results reported in US7550507B2, “2-(alpha-hydroxypentyl) benzoate and its preparation and use” (Institute of Materia Medica, Chinese Academy of Medical …, priority 2002, dated 2009).
Several values for one entry are separate records, joined by “and”; a condition that tells them apart may be missing. Identical values can stand only once. Marks after values point to notes of the source that are not given here.

What was measured:
isolated hearts on rats = test: Cardiac arrhythmia induced by ischemia-reperfusion in isolated rat hearts (Langendorff perfusion); design: species or system male Wistar rats; conditions: for Duration of Arrhythmia: 15 min ischemia, 30 min reperfusion, control 22.5 ± 9.5; for VT Duration: control 8.2 ± 7.9; for VF Incidence: control 33.3; for Spasmic VT Incidence: control 66.7; for VE Incidence: control 83.3; for VT Incidence: control 100
Protocol: Animals: male Wistar rats, 250-300 g, from the Animal Center of the Chinese Academy of Medical Sciences, randomly grouped.
Langendoff perfusion system;
XD-7100 ECG, Shanghai Medical Electronic Devices Factory
(1) remove the rat heart quickly after decapitation and put it into K—H solution at 4° C., fix the aorta to the perfusion system;
(2) perfuse the heart with K—H solution, 6-8 ml/min, 37±0.5° C., under the pressure of about 60 mmH2O;
(3) connect the two copper electrodes to the cardiac apex and the bottom of the right atria and record the cardiogram;
(4) perporate under the left anterior descending branch of the coronary artery with 3/0 line;
(5) perfuse the heart for 10 minutes and record the normal cardiogram;
(6) ligate the left anterior descending branch of the coronary artery to make myocardial ischemia for 15 minutes;
(7) nip the line and resume the perfusion, record the change of cardiogram for 30 minutes (mainly on VF and Spasmic VT);
(8) dissolve the dl-PHPB at pH 1.5 to a desired concentration, add it into K—H solution to do the experiments.

rats of permanent MCAO = test: Infarction area after local cerebral ischemia (permanent MCAO) in rats, TTC staining; assay type: in vivo, male Wistar rats; conditions: 24 hours after MCAO; for infarct area (weight percentage of the infarct tissue to the total cerebral tissue), X ± SD: 200 mg/kg p.o. with HCl (pH 1.6) 0.5 ml, 30 min prior to ischemia, control 26.99 ± 3.51
Protocol: Animal: male Wistar rats (250-280 g), from the Animal Center of the Chinese Academy of Medical Sciences.
dl-PHPB was dissolved in double distilled water.
Methods: Middle cerebral artery occlusion(MCAO): the rats were anesthetized by trichloroacetaldehyde monohydrate (350 mg/kg, ip). The left CCA was exposed through a middle neck incision and was carefully dissected free from surrounding nerves. The ICA and ECA were isolated. Then a 4 cm long 0.26 mm diameter nylon suture was inserted through proximal ECA into ICA for a length of […] from the bifurcation. The wounds were sutured and the rats were released. The room temperature was kept 24-25° C. during the test.
Animals were divided into two groups, 1) administration group: dl-PHPB (200 mg/kg) and HCl (pH 1.6) 0.5 ml (to mimic the acidic condition of the human stomach) were administrated per os (p.o) 30 minutes prior to ischemia; 2) Control group: double-distilled water and HCl (pH 1.6) 0.5 ml were administrated per os (p.o) 30 minutes prior to ischemia.
The anaesthetized animals were decapitated 24 hours after MCAO. Each brain were rapidly removed and kept in ice-cold saline (0-4° C.). After 10 minutes, the coronal section was sliced into five pieces after the removal of bulbus olfactus, cerebellum, and low brain stem. Upon cutting, the first cut was at the center point of the connection line of the polus anterior of cerebrum and the optic chiasm, the second cut was at the site of optic chiasm, the third was at the site of infundibulum stalk, and the fourth was between the infundibulum stalk and the caudal pole of posterior lobe. The sliced brain was kept in a 5 ml solution of TTC (4%) and K2HPO4 (1M), shaded and incubated at 37° C. for 30 minutes. During the incubation, slices were turned over every 7 -8 minutes. […] The infarcted tissue was separated from the normal tissue and weighed. The infarction area is calculated from the weight percentage of the infarct tissue to the total cerebral tissue.

[1] = system: platelet aggregation induced by ADP; test: Platelet aggregation induced by ADP in PRP of rats after oral administration (Born method); assay type: in vivo, male Wistar rats; conditions: ADP 5 μmol/L
Protocol: Animal: male Wistar rats (260-280 g), from the Animal Center of the Chinese Academy of Medical Sciences.
Potassium 2-(1-hydroxypentyl)-benzoate, dl-PHPB),
ADP, obtained from Shanghai Institute of Biochemistry, Acedemia Sinica.
Equipment: Platelet Aggregometer (type: PAT-4A MEGURO-KU, TOKYO, JAPAN.
Groups: Animals were divided into four groups:
1) Control group: double-distilled water (400 mg/kg) was adimistrated per os (p.o) 30 minutes prior blood sampling;
2) Dl-PHPB (400 mg/kg) was administrated per os (p.o) 30 minutes prior to the blood sampling;
3) Dl-PHPB (400 mg/kg) was administrated per os (p.o) 60 minutes prior to the blood sampling;
4) Dl-PHPB (200 mg/kg) was administrated per os (p.o) 30 minutes prior to the blood sampling;
After oral administration of dl-PHPB, blood was drawn from the carotid of rats at the time points of 30 and 60 minutes, respectively. Platelet rich plasma (PRP) and platelet poor plasma (PPP) were prepared upon common procedure. According to the method described by of Born, PRP (200 μl) was put on the Platelet Aggregometer and pre-incubated at 37° C. for 5 minutes and then ADP with the final concentration of 5 μmol/L was added to induce platelet aggregation. The maximum aggregation was measured 5 minutes after the addition of ADP.

CCCCC(O)c1ccccc1C(=O)[O-].[K+] (racemic) [dl-PHPB, Potassium dl-2-(α-hydroxypentyl) benzoate]
Duration of Arrhythmia (isolated hearts on rats; 10^−4 mol/L in K-H solution): 1.7 ± 0.6 min
VT Duration (isolated hearts on rats; 10^−4 mol/L): 1.1 ± 0.6 min
VF Incidence (isolated hearts on rats; 10^−4 mol/L): 0%
Spasmic VT Incidence (isolated hearts on rats; 10^−4 mol/L): 0* %
VE Incidence (isolated hearts on rats; 10^−4 mol/L): 42.9%
VT Incidence (isolated hearts on rats; 10^−4 mol/L): 100%
Duration of Arrhythmia (isolated hearts on rats; 10^−5 mol/L in K-H solution): 23.3 ± 5.8 min
VT Duration (isolated hearts on rats; 10^−5 mol/L): 5.0 ± 6.5 min
VF Incidence (isolated hearts on rats; 10^−5 mol/L): 33.3%
Spasmic VT Incidence (isolated hearts on rats; 10^−5 mol/L): 50%
VE Incidence (isolated hearts on rats; 10^−5 mol/L): 66.7%
VT Incidence (isolated hearts on rats; 10^−5 mol/L): 100%
infarct area, individual animals of treated group (rats of permanent MCAO; 200 mg/kg p.o. 30 min prior to ischemia, single rats): 18.79% and 26.01% and 20.24% and 18.24% and 22.74% and 16.84% and 15.93%
infarct area (weight percentage of the infarct tissue to the total cerebral tissue), X ± SD (rats of permanent MCAO): 19.83 ± 3.53 %
infarct area (weight percentage of the infarct tissue to the total cerebral tissue), X ± SD (rats of permanent MCAO; listed as dl-PHBP): 19.83±3.53%
Rate of inhibition ([1]; 200 mg/kg p.o., 30 min): 6.62%
Rate of inhibition ([1]; 400 mg/kg p.o., 30 min): 19.31%
Rate of inhibition ([1]; 400 mg/kg p.o., 60 min): 10.21%
